Holding throughout (type): functional
Assay [1] has as its target T1, Substance-K receptor (Oryctolagus cuniculus) (UniProt P79218).
T1 sequence (whole entry): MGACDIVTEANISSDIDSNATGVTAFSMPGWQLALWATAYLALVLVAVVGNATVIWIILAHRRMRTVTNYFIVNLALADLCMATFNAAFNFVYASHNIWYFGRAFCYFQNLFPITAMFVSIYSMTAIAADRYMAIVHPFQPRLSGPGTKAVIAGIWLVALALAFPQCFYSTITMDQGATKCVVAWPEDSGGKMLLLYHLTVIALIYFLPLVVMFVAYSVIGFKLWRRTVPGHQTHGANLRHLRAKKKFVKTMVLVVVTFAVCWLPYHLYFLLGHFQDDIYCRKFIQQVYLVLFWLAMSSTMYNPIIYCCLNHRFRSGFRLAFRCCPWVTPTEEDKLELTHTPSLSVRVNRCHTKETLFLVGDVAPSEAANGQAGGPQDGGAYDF
Description: Compound was tested for its antagonistic activity against tachykinin NK2 receptor in isolated rabbit pulmonary artery (RPA).

For assay [2], the target named is T2, Substance-K receptor (Mesocricetus auratus) (UniProt P51144).
T2 sequence (whole entry): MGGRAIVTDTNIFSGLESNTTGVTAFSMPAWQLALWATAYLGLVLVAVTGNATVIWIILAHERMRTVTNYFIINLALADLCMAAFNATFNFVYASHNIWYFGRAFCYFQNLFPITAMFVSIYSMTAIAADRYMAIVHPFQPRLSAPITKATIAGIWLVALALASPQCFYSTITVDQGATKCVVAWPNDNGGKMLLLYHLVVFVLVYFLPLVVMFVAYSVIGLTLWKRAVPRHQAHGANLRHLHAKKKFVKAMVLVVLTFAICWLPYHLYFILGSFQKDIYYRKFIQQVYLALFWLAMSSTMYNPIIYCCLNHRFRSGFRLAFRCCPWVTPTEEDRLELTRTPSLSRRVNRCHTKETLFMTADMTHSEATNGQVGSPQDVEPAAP
Description: Compound was tested for its antagonistic activity against tachykinin NK2 receptor in hamster trachea (HT); inactive up to 10 uM.

In assay [3] the target is T2, Substance-K receptor (Mesocricetus auratus). Nature of the assay: Compound was tested for its antagonistic activity against tachykinin NK2 receptor in hamster trachea (HT).

Calls of active or inactive are those of the source. The calls are words filed in the database; no cut-off is given here. Peptide text beside a SMILES is read from it. * marks the point of attachment. βGlc = OC[C@H]1O[C@@H](*)[C@H](O)[C@@H](O)[C@@H]1O

For orientation: pKB means the KB on a negative log10 scale, so that one unit is a factor of ten.

`CC(C)[C@H](NC(=O)[C@H](Cc1c[nH]c2ccccc12)NC(=O)[C@H](Cc1ccc(O[C@@H]2O[C@H](CO)[C@@H](O)[C@H](O)[C@H]2O)cc1)NC(=O)[C@@H](N)CC(=O)O)C(=O)N[C@@H](Cc1c[nH]c2ccccc12)C(=O)N[C@H](Cc1c[nH]c2ccccc12)C(=O)N[C@@H](CCCCN)C(N)=O` showed a pKB in assay [1] of 6.2. For the same compound, the pKB entry in assay [2] is “inactive”.
Consider `CC(C)[C@H](NC(=O)C(Cc1c[nH]c2ccccc12)NC(=O)[C@H](Cc1ccc(O)cc1)NC(=O)[C@H](CC(=O)O)NC(=O)[C@@H](N)CO[C@@H]1O[C@H](CO)[C@@H](O)[C@H](O)[C@H]1O)C(=O)NC(Cc1c[nH]c2ccccc12)C(N)=O` (stereo in doubt), for which the pKB in assay [1] and in assay [3] was under 6 in each case.
`CC(C)[C@H](NC(=O)[C@@H](Cc1c[nH]c2ccccc12)NC(=O)[C@H](Cc1ccc(O)cc1)NC(=O)[C@@H](N)CC(=O)O)C(=O)N[C@H](Cc1c[nH]c2ccccc12)C(N)=O`: the pKB in assay [1] turned out to be 6.3; in assay [3], 5.4.
In turn, `CC(C)[C@H](NC(=O)[C@H](Cc1c[nH]c2ccccc12)NC(=O)[C@H](Cc1ccc(O[C@@H]2O[C@H](CO)[C@@H](O)[C@H](O)[C@H]2O)cc1)NC(=O)[C@@H](N)CC(=O)O)C(=O)N[C@@H](Cc1c[nH]c2ccccc12)C(N)=O` (H-DY(βGlc)WVW-NH2) had a pKB in assay [1] of under 5. Moreover, the pKB result in assay [2] is “inactive”.
In the case of `CC(C)[C@H](NC(=O)[C@H](Cc1c[nH]c2ccccc12)NC(=O)[C@H](Cc1ccc(O)cc1)NC(=O)[C@@H](N)CC(=O)O)C(=O)N[C@H](Cc1c[nH]c2ccccc12)C(=O)N[C@@H](Cc1c[nH]c2ccccc12)C(=O)N[C@@H](CCCCN)C(N)=O`, the pKB in assay [1] was found to be 8.1; in assay [3] it was 5.6.
The like results for `CC(C)[C@H](NC(=O)[C@H](Cc1c[nH]c2ccccc12)NC(=O)[C@H](Cc1ccc(O)cc1)NC(=O)[C@H](CC(=O)O)NC(=O)[C@@H](N)CO[C@@H]1O[C@H](CO)[C@@H](O)[C@H](O)[C@H]1O)C(=O)N[C@@H](Cc1c[nH]c2ccccc12)C(=O)N[C@H](Cc1c[nH]c2ccccc12)C(=O)N[C@@H](CCCCN)C(N)=O` were, in that order, 7.3 and under 5.
Turning to `CC(C)[C@H](NC(=O)[C@H](Cc1c[nH]c2ccccc12)NC(=O)[C@H](Cc1ccc(O)cc1)NC(=O)[C@H](CC(=O)O)NC(=O)[C@@H](N)Cc1ccc(O[C@@H]2O[C@H](CO)[C@@H](O)[C@H](O)[C@H]2O)cc1)C(=O)N[C@@H](Cc1c[nH]c2ccccc12)C(=O)N[C@H](Cc1c[nH]c2ccccc12)C(=O)N[C@@H](CCCCN)C(N)=O`, the pKB in assay [1] is 7.2; in assay [3], under 5.
